In ChEMBL document CHEMBL4680187, “Optimization of EphA2 antagonists based on a lithocholic acid core led to the identification of UniPR505, a new 3α-carbamoyloxy derivative with antiangiogenetic properties” (Eur J Med Chem, 2020):

How the values were obtained:
Ephrin type-A receptor 8 = biological target: T1, Ephrin type-A receptor 8 (Mus musculus, UniProt O09127); assay: Displacement of biotinylated ephrin-A1-Fc from mouse EphA8 Fc preincubated for 1 hr followed by ephrin-A1-FC addition and measured after 4 hrs by ELISA
T1 sequence (O09127 whole entry): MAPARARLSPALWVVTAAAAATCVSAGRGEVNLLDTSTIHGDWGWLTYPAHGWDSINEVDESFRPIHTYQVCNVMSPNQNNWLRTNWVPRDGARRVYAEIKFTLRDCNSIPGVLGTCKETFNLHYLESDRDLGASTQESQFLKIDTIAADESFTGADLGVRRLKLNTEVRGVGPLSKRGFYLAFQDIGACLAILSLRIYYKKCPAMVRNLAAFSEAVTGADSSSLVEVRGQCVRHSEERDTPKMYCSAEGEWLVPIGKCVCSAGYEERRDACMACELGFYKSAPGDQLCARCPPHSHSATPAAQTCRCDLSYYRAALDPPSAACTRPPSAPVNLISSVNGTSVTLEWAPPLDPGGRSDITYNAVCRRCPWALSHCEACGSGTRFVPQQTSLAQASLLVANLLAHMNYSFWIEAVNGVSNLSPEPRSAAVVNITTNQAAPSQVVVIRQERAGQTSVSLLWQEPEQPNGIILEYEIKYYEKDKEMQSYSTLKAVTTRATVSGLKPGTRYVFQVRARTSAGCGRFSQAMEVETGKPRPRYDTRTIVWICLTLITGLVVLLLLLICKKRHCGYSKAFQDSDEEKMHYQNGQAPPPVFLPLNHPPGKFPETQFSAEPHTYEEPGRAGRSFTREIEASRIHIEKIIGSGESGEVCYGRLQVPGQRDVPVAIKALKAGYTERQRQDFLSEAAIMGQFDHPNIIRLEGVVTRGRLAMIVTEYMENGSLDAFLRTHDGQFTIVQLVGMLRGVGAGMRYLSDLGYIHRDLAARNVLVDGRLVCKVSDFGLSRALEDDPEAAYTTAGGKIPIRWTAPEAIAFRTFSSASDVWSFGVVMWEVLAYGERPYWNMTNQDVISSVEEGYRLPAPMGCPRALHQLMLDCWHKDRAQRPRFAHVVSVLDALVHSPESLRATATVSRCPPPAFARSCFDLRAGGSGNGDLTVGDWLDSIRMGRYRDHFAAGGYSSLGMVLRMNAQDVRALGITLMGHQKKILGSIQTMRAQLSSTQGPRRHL

Ephrin type-B receptor 3 = biological target: T2, Ephrin type-B receptor 3 (Mus musculus, UniProt P54754); assay: Displacement of biotinylated ephrin-B1-Fc from mouse EphB3 Fc preincubated for 1 hr followed by ephrin-B1-FC addition and measured after 4 hrs by ELISA
T2 sequence (P54754 whole entry): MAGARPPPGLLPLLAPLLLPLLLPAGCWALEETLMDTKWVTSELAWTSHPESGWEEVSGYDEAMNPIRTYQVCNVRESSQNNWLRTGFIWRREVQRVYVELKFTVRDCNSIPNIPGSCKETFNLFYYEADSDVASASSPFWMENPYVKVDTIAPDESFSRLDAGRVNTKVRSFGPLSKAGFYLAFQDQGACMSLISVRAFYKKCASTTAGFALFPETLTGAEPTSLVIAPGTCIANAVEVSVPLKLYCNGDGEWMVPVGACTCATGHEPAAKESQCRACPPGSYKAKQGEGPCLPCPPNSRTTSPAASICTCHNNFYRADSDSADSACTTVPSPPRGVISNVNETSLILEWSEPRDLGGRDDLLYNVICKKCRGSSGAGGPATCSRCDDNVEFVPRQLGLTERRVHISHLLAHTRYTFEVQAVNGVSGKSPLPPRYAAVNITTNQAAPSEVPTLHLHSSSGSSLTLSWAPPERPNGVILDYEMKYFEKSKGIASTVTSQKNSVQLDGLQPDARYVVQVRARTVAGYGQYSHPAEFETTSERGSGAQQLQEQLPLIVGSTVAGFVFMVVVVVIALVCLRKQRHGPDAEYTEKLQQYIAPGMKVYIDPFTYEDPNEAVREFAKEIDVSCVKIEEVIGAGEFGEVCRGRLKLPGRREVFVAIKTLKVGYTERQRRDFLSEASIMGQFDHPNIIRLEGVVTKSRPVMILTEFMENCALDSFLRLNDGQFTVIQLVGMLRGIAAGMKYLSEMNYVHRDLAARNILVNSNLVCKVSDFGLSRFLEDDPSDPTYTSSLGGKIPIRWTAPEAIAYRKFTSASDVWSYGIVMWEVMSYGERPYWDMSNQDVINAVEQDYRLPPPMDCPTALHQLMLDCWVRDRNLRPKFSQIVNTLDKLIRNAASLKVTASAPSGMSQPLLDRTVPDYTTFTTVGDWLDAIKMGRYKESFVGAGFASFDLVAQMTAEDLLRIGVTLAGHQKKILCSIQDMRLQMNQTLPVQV

Ephrin type-B receptor 2 = biological target: T3, Ephrin type-B receptor 2 (Mus musculus, UniProt P54763); assay: Displacement of biotinylated ephrin-B1-Fc from mouse EphB2 Fc preincubated for 1 hr followed by ephrin-B1-FC addition and measured after 4 hrs by ELISA
T3 sequence (P54763 whole entry): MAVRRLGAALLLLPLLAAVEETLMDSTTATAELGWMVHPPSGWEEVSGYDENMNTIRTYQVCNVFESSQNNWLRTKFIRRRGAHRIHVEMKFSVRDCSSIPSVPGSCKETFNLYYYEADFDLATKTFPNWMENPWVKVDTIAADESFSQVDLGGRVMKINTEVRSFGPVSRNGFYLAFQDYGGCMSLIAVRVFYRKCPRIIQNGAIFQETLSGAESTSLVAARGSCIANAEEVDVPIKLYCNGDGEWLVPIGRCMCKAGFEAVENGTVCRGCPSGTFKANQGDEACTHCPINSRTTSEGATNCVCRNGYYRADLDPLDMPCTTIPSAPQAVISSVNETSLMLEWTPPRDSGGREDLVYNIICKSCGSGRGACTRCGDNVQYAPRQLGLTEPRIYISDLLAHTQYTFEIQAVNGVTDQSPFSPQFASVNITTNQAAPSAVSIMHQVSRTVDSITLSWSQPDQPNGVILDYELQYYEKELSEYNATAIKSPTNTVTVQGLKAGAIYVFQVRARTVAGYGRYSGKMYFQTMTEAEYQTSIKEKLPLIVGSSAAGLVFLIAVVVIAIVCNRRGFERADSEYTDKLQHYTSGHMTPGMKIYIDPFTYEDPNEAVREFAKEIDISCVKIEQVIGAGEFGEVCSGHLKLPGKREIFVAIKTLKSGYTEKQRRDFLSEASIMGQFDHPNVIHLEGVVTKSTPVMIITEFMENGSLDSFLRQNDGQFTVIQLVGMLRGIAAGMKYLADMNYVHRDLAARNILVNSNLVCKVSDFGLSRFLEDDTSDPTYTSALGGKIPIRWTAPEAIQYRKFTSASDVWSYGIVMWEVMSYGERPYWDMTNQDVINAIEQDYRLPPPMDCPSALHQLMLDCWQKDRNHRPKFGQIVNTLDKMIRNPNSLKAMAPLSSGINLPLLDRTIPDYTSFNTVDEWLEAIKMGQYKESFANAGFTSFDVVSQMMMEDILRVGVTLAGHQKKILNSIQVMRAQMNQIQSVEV

- IC50 (Ephrin type-A receptor 8): 7.7 µM
- IC50 (Ephrin type-B receptor 3): 11 µM
- IC50 (Ephrin type-B receptor 2): 14 µM
SMILES: CCNC(=O)O[C@@H]1CC[C@@]2(C)[C@H](CC[C@@H]3[C@@H]2CC[C@]2(C)[C@@H]([C@H](C)CCC(=O)N[C@H](CC(=O)O)Cc4c[nH]c5ccccc45)CC[C@@H]32)C1
